What was measured:
ZIKV [1] = experiment: ZIKV titer-reduction assay (plaque assay); assay type: cell-based, Zika virus; details: Huh7, MOI 0.2, 72 hpi; for inhibition at 8.5 µM / inhibition at 1.5 µM / EC50 / EC90: Zika virus; for inhibition at 8.5 µM / inhibition at 1.5 µM: Huh-7, 72 h; for EC50 / EC90: Huh-7
Protocol: Selected compounds were validated at 8.5 µM or 1.5 µM (for compounds considered toxic at higher concentrations) using titer-reduction assays. Huh7 cells (1.5 × 10^5 per well) were plated in 24-well plates. Next day, the cells were inoculated with ZIKV or DENV (MOI 0.2 or 0.05, respectively) and two hours later, the inoculum was replaced with post-infection medium containing compound of interest at 8.5 µM or 1.5 µM. Seventy-two hpi, supernatants from infected and treated cells were collected and viral titers were measured by plaque assay. To visualize plaques, confluent Vero cells in 24-well plates were inoculated with 1:10 serial dilutions of supernatants. After two hours, the inoculum was retired and replaced with 800 µL of overlay medium (MEM medium containing 1.3% methylcellulose, 2% FBS, 100 IU streptomycin/penicillin per mL and 10 mM HEPES). After 5 days (7 days for DENV), cells were washed with PBS, fixed with 2% formaldehyde, and stained using 0.5% crystal violet in 25% methanol. Infectious virus titer (pfu/mL) was determined using the following formula: number of plaques × dilution factor × (1/inoculum volume (mL)). Viral titers were normalized with DMSO-treated and infected cells (0% inhibition). The limit of detection was 200 pfu/mL (100% inhibition). […] Dose-response assays (Figure S4, Panels B and C) were performed for selected compounds using titer-reduction assays. We used a concentration range of 0.5 to 15 µM for all selected compounds except for compound 14 (range of 0.1–3 µM). Pfu/mL were normalized as mentioned for single-dose response experiment using the values for DMSO-treated and infected cells (0% inhibition) and the limit of detection value (200 pfu/mL) as 100% inhibition. Dose-response curves were built in GraphPad Prism and EC50 values were obtained from those curves.

ZIKV [2] = experiment: ZIKV reporter assay (luciferase-expressing ZIKV PAN1 Nluc in Huh7 cells); assay type: cell-based; details: Zika virus, Huh-7, Huh7, MOI 0.2, 72 hpi
Protocol: The initial screening for ZIKV was performed using the in-house developed infectious ZIKV reporter expressing Nanoluc (ZIKV PAN1 Nluc) (see details in SI). Briefly, 1.5 × 10^4 Huh7 cells per well were seeded in 96 well plates. Next day, cells were inoculated with the ZIKV reporter at a multiplicity of infection (MOI) of 0.2 in infection medium (MEM medium supplemented with 1% FBS, 100 IU streptomycin/penicillin per mL, 1 mM sodium pyruvate and 10 mM HEPES). After 2 h, the inoculum was replaced with post-infection medium (MEM medium supplemented with 5% FBS, 100 IU streptomycin/penicillin per mL, 1 mM sodium pyruvate and 10 mM HEPES) containing compound of interest (10 µM). We used the flavivirus NS5 MTase inhibitor NSC12155^13 (10 µM) and the NS5 RdRp inhibitor NITD008^12 (1 µM) as positive controls for inhibition or 0.05% DMSO as vehicle control. Seventy-two hours post-infection (hpi), the cells were lysed with 50 µL 1× luciferase lysis buffer (Promega, Madison, WI, USA), incubated 10 min at room temp and stored at −80 °C. Thirty-five µL of lysed cells were transferred to a white 96-well plate and combined with 35 µL Nano-Glo® luciferase assay substrate (Promega) diluted 1:50 in Nano-Glo® luciferase assay buffer (Promega). The reaction was incubated for 2 min and luminescence readings were acquired using a Neo 2 plate reader (BioTek, Winooski, VT, USA). Percent inhibition was calculated in GraphPad Prism (San Diego, CA, USA) normalizing the luciferase signal to infected cells treated with DMSO (0% inhibition) and uninfected cells treated with DMSO (100% inhibition). EC50 values were calculated in GraphPad Prism using data obtained from dose-response experiments. For compounds 1 and 8, a range of concentrations between 0.05 and 15 µM were used. For compounds 11, 14, 23 and NSC12155, we used concentrations from 0.005 to 90 µM and 0.002 to 45 µM for NITD008.

[3] = Cell viability assay (MTS); assay type: cell-based; details: human, non-infected Huh7 cells; for viability at 10 µM: normalized to DMSO; for CC50 at 72 h: Huh7 cells
Protocol: Cell viability assays for non-infected Huh7 cells treated with the testing compounds (in-house library), control compounds (NITD008, RDV) and DMSO were performed in parallel with the antiviral screening. After 3 or 5 days of treatment, depending upon the experiment, cell viability was evaluated using the MTS-based tetrazolium reduction CellTiter 96 Aqueous Non-Radioactive cell proliferation assay (Promega). Treatment was retired from the wells and the cells incubated with MTS diluted 1:10 in MEM medium supplemented with 10% FBS. Absorbance was measured at 490 nm wavelength. Readings were normalized with DMSO-treated cells (100%) and expressed as % viability. For dose-response experiments, we used concentrations between 0.01 and 90 µM and dose-response curves and CC50 were calculated using GraphPad Prism.

Row | SMILES | inhibition at 8.5 µM (ZIKV [1]; 8.5 µM) [%] | inhibition at 10 µM (ZIKV [2]) [%] | viability at 10 µM [3] [%] | CC50 at 72 h [3] [µM] | Titer Reduction Assay % at 8.5 µM (ZIKV [1]; 8.5 µM) | inhibition at 1.5 µM (ZIKV [1]) [%] | EC50 (ZIKV [1]) [µM] | EC90 (ZIKV [1]) [µM] | EC50 (ZIKV [2]) [µM]
1 | O=[N+]([O-])c1ccc(Cn2ccc3c(NCc4ccccc4Cl)ncnc32)cc1 [Compound 19, N-(2-Chlorobenzyl)-7-(4-nitrobenzyl)-7H-pyrrolo[2,3-d]pyrimidin-4-amine] | 91 | 49 | 80 | – | – | – | – | – | –
2 | N#Cc1ccc(Cn2ccc3c(NCc4cccc(Cl)c4)ncnc32)c2ccccc12 [Compound 15, 4-((4-((3-Chlorobenzyl)amino)-7H-pyrrolo[2,3-d]pyrimidin-7-yl)methyl)-1-naphthonitrile] | 0 | 69 | 84 | 39.6 | – | – | – | – | –
3 | O=[N+]([O-])c1ccc(Cn2ncc3c(NCc4cccc(Cl)c4)ncnc32)cc1 [Compound 31, N-(3-Chlorobenzyl)-1-(4-nitrobenzyl)-1H-pyrazolo[3,4-d]pyrimidin-4-amine] | 86 | 83 | 96 | – | – | – | – | – | –
4 | FC(F)(F)c1cccc(Cn2ccc3c(NCc4cccc(Cl)c4)ncnc32)c1 [Compound 9, N-(3-Chlorobenzyl)-7-(3-(trifluoromethyl)benzyl)-7H-pyrrolo[2,3-d]pyrimidin-4-amine] | – | 92 | 61 | – | toxic | – | – | – | –
5 | O=[N+]([O-])c1ccc(Cn2ccc3c(NCc4cccc5ccccc45)ncnc32)cc1 [Compound 24, N-(Naphthalen-1-ylmethyl)-7-(4-nitrobenzyl)-7H-pyrrolo[2,3-d]pyrimidin-4-amine] | – | 94 | 44 | – | – | 13 | – | – | –
6 | O=[N+]([O-])c1ccc(Cn2ccc3c(NCc4cccc(Cl)c4Cl)ncnc32)cc1 [Compound 21, N-(2,3-Dichlorobenzyl)-7-(4-nitrobenzyl)-7H-pyrrolo[2,3-d]pyrimidin-4-amine] | 91 | 67 | 77 | – | – | – | – | – | –
7 | N#Cc1ccc(Cn2ccc3c(NCc4cc(Cl)ccc4Cl)ncnc32)cc1 [Compound 28, 4-((4-((2,5-Dichlorobenzyl)amino)-7H-pyrrolo[2,3-d]pyrimidin-7-yl)methyl)benzonitrile] | – | 74 | 48 | – | – | – | – | – | –
8 | O=[N+]([O-])c1ccc(Cn2ccc3c(NCc4cc(Cl)ccc4Cl)ncnc32)cc1 [Compound 22, N-(2,5-Dichlorobenzyl)-7-(4-nitrobenzyl)-7H-pyrrolo[2,3-d]pyrimidin-4-amine] | 77 | 71 | 62 | 26.9 | – | – | – | – | –
9 | CS(=O)(=O)c1cccc(Cn2ccc3c(NCc4cccc(Cl)c4)ncnc32)c1 [Compound 10, N-(3-Chlorobenzyl)-7-(3-(methylsulfonyl)benzyl)-7H-pyrrolo[2,3-d]pyrimidin-4-amine] | 92 | 72 | 82 | – | – | – | – | – | –
10 | Cc1cccc(CNc2ncnc3c2ccn3Cc2ccc(C#N)cc2)c1 [Compound 25, 4-((4-((3-Methylbenzyl)amino)-7H-pyrrolo[2,3-d]pyrimidin-7-yl)methyl)benzonitrile] | – | 84 | 33 | – | – | – | – | – | –
11 | Clc1cccc(CNc2ncnc3c2ccn3Cc2ccnc3ccccc23)c1 [Compound 14, N-(3-Chlorobenzyl)-7-(quinolin-4-ylmethyl)-7H-pyrrolo[2,3-d]pyrimidin-4-amine] | – | 100 | 48 | 5.67 | – | 94 | 1.1 | 2.28 | 0.93
12 | O=[N+]([O-])c1cccc(Cn2ccc3c(NCc4cccc(Cl)c4)ncnc32)c1 [Compound 5, N-(3-Chlorobenzyl)-7-(3-nitrobenzyl)-7H-pyrrolo[2,3-d]pyrimidin-4-amine] | 92 | 77 | 79 | – | – | – | – | – | –
13 | Cc1cc(N)c2cc(NC(=O)Nc3ccc4nc(C)cc(N)c4c3)ccc2n1 [NSC 12155, reference compound] | 72 | 68 | 70 | 23 | – | 37 | 7.34 | 14.1 | 2.18
14 | O=[N+]([O-])c1ccccc1Cn1ccc2c(NCc3cccc(Cl)c3)ncnc21 [Compound 4, N-(3-Chlorobenzyl)-7-(2-nitrobenzyl)-7H-pyrrolo[2,3-d]pyrimidin-4-amine] | 82 | 44 | 93 | – | – | – | – | – | –
15 | N#Cc1ccc(Cn2cnc3c(NCc4cccc(Cl)c4)ncnc32)cc1 [Compound 30, 4-((6-((3-Chlorobenzyl)amino)-9H-purin-9-yl)methyl)benzonitrile] | 93 | 68 | 94 | 49.3 | – | – | 7.12 | 12.4 | –
16 | Nc1ncnc2c1ccn2Cc1ccc([N+](=O)[O-])cc1 [Compound 17, 7-(4-Nitrobenzyl)-7H-pyrrolo[2,3-d]pyrimidin-4-amine] | – | 0 | 92 | – | – | – | – | – | –
17 | N#Cc1ccc(Cn2ccc3c(NCc4cccc(Cl)c4Cl)ncnc32)cc1 [Compound 27, 4-((4-((2,3-Dichlorobenzyl)amino)-7H-pyrrolo[2,3-d]pyrimidin-7-yl)methyl)benzonitrile] | – | 71 | 78 | – | – | – | – | – | –
18 | N#Cc1ccc(Cn2ccc3c(NCc4ccccc4Cl)ncnc32)cc1 [Compound 26, 4-((4-((2-Chlorobenzyl)amino)-7H-pyrrolo[2,3-d]pyrimidin-7-yl)methyl)benzonitrile] | – | 58 | 76 | – | – | – | – | – | –
19 | FC(F)(F)c1ccc(Cn2ccc3c(NCc4cccc(Cl)c4)ncnc32)cc1 [Compound 6, N-(3-Chlorobenzyl)-7-(4-(trifluoromethyl)benzyl)-7H-pyrrolo[2,3-d]pyrimidin-4-amine] | 83 | 85 | 62 | – | – | – | – | – | –
20 | CS(=O)(=O)c1ccc(Cn2ccc3c(NCc4cccc(Cl)c4)ncnc32)cc1 [Compound 7, N-(3-Chlorobenzyl)-7-(4-(methylsulfonyl)benzyl)-7H-pyrrolo[2,3-d]pyrimidin-4-amine] | – | 98 | 39 | – | – | 69 | – | – | –
21 | Clc1cccc(CNc2ncnc3c2ccn3Cc2ccccc2)c1 [Compound 3, 7-Benzyl-N-(3-chlorobenzyl)-7H-pyrrolo[2,3-d]pyrimidin-4-amine] | 68 | 42 | 90 | – | – | – | – | – | –
22 | O=[N+]([O-])c1ccc(Cn2ccc3c(NCc4ccccc4)ncnc32)cc1 [Compound 18, N-Benzyl-7-(4-nitrobenzyl)-7H-pyrrolo[2,3-d]pyrimidin-4-amine] | – | 96 | 42 | – | – | – | – | – | –

From PMC8270260, “4,7-Disubstituted 7H-Pyrrolo[2,3-d]pyrimidines and Their Analogs as Antiviral Agents against Zika Virus” (Molecules, 2021)
